According to patent publication US9850225B2, “Compounds useful as immunomodulators” (BRISTOL-MYERS SQUIBB COMPANY, priority 2014, dated 2017):

molecular target: PD-1/PD-L1 interaction (PD-1-Ig / PD-L1-His) (Homo sapiens (Human), UniProt Q9NZQ7); assay: PD-1/PD-L1 Homogenous Time-Resolved Fluorescence (HTRF) binding assay; details: PD-1/PD-L1 HTRF binding assay; numeric value; read-out: Range or IC50
Summary of the method: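 HTRF detection used 1 nM europium-cryptate anti-Ig and 20 nM APC anti-His. Compounds first saw 10 nM PD-L1-His for 15 min, and 20 nM PD-1-Ig was then added for another 15 min. Buffer was dPBS plus 0.1% BSA and 0.05% Tween-20. All concentrations are final.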

Sequence of PD-1/PD-L1 interaction (PD-1-Ig / PD-L1-His) (Q9NZQ7 other isoform, or with tags, fused parts or gaps): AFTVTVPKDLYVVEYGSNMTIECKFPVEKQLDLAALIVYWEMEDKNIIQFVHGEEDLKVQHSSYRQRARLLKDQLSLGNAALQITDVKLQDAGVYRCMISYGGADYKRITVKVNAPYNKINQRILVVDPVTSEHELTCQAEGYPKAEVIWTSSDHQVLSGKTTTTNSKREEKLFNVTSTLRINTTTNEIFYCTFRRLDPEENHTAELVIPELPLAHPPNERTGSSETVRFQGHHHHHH

| IC50 [nM] | Structure (SMILES) |
| --- | --- |
| 239 | CC(=O)NCCNCc1ccc(OCc2cccc(-c3ccccc3)c2C)cc1OCc1ccc(C(=O)O)cc1 [Example 1043, 4-((2-(((2-acetamidoethyl)amino)methyl)-5-((2-methyl-[1,1′-biphenyl]-3-yl)methoxy)phenoxy)methyl)benzoic acid] |
| 10 | Cc1c(COc2cc(OCc3cncc(C(=O)O)c3)c(CN[C@@H](CCCN)C(=O)O)cc2Cl)cccc1-c1ccc2c(c1)OCCO2 [Example 2002, (S)-5-((2-(((4-amino-1-carboxybutyl)amino)methyl)-4-chloro-5-((3-(2,3-dihydrobenzo[b][1,4]dioxin-6-yl)-2-methylbenzyl)oxy)phenoxy)methyl)nicotinic acid] |

same assay, conditions: PD-1/PD-L1 HTRF binding assay; value given as range class; read-out: Range or IC50

| Structure (SMILES) | IC50 [nM] |
| --- | --- |
| C=Cc1cc(CNCCNC(C)=O)c(OCc2cccc(C#N)c2)cc1OCc1cccc(-c2ccc3c(c2)OCCO3)c1C [Example 1292, N-(2-(2-(3-cyanobenzyloxy)-4-(3-(2,3-dihydrobenzo[b][1,4]dioxin-6-yl)-2-methylbenzyloxy)-5-vinylbenzylamino)ethyl)acetamide] | 0.6 to 10 |
| CC(=O)NCCNCc1cc(Br)c(OCc2cccc(-c3ccc4c(c3)OCCO4)c2C#N)cc1OCc1cccc(C#N)c1 [Example 1315, N-(2-((5-bromo-4-((2-cyano-3-(2,3-dihydrobenzo[b][1,4]dioxin-6-yl)benzyl)oxy)-2-((3-cyanobenzyl)oxy)benzyl)amino)ethyl)acetamide] | 0.6 to 10 |
| Cc1c(COc2ccc(CN[C@@H](C(=O)O)[C@@H](C)O)c(OCc3cccc(C#N)c3)c2)cccc1-c1ccc2c(c1)OCCO2 [Example 1125, (2R,3R)-2-((2-((3-cyanobenzyl)oxy)-4-((3-(2,3-dihydrobenzo[b][1,4]dioxin-6-yl)-2-methylbenzyl)oxy)benzyl)amino)-3-hydroxybutanoic acid] | 0.6 to 10 |
| Cc1c(COc2cc(OCc3cccc(C#N)c3)c(CNC(Cc3c[nH]c4ccccc34)C(=O)O)cc2Cl)cccc1-c1ccc2c(c1)OCCO2 (centres unmarked) [Example 1192, 2-((5-chloro-2-((3-cyanobenzyl)oxy)-4-((3-(2,3-dihydrobenzo[b][1,4]dioxin-6-yl)-2-methylbenzyl)oxy)benzyl)amino)-3-(1H-indol-3-yl)propanoic acid] | 100 to 20000 |
| CC(=O)NCCNCc1cc(Br)c(OCc2cccc(-c3ccc4c(c3)OCCO4)c2C)cc1OCc1cncc(C#N)c1 [Example 1317, N-(2-(5-bromo-2-((5-cyanopyridin-3-yl)methoxy)-4-(3-(2,3-dihydrobenzo[b][1,4]dioxin-6-yl)-2-methylbenzyloxy)benzylamino)ethyl)acetamide] | 0.6 to 10 |
| Cc1c(COc2cc(OCc3cncc(C#N)c3)c(CN[C@@H](CC(N)=O)C(=O)O)cc2Cl)cccc1-c1ccc2c(c1)OCCO2 [Example 3022, (S)-4-amino-2-((5-chloro-2-((5-cyanopyridin-3-yl)methoxy)-4-((3-(2,3-dihydrobenzo[b][1,4]dioxin-6-yl)-2-methylbenzyl)oxy)benzyl)amino)-4-oxobutanoic acid] | 0.6 to 10 |
| COc1cc(OCc2cccc(-c3ccccc3)c2C)cc(OCc2cccc(C#N)c2)c1CN[C@@H](C(=O)O)[C@H](C)O [Example 1135, (2R,3S)-2-((2-((3-cyanobenzyl)oxy)-6-methoxy-4-((2-methyl-[1,1′-biphenyl]-3-yl)methoxy)benzyl)amino)-3-hydroxybutanoic acid] | 0.6 to 10 |
| Cc1c(COc2cc(OCc3cncc(C#N)c3)c(CN[C@@H](CCN)C(=O)O)cc2Cl)cccc1-c1ccc2c(c1)OCCO2 [Example 2005, (S)-4-amino-2-((5-chloro-2-((5-cyanopyridin-3-yl)methoxy)-4-((3-(2,3-dihydrobenzo[b][1,4]dioxin-6-yl)-2-methylbenzyl)oxy)benzyl)amino)butanoic acid] | 10 to 100 |
| Cc1c(COc2cc(OCc3cccc(C#N)c3)c(CN[C@@H](CC(=O)O)C(=O)O)cc2Cl)cccc1-c1ccc2c(c1)OCCO2 [Example 1158, (S)-2-((5-chloro-2-((3-cyanobenzyl)oxy)-4-((3-(2,3-dihydrobenzo[b][1,4]dioxin-6-yl)-2-methylbenzyl)oxy)benzyl)amino)succinic acid] | 0.6 to 10 |
| Cc1cc(OCc2cccc(-c3ccc4c(c3)OCCO4)c2C)cc(OCc2cncc(C#N)c2)c1CN[C@](C)(CO)C(=O)O [Example 1008, (R)-2-(2-((5-cyanopyridin-3-yl)methoxy)-4-(3-(2,3-dihydrobenzo[b][1,4]dioxin-6-yl)-2-methylbenzyloxy)-6-methylbenzylamino)-3-hydroxy-2-methylpropanoic acid] | 0.6 to 10 |
| Cc1cc(OCc2cccc(-c3ccc4c(c3)OCCO4)c2C)cc(OCc2cncc(C#N)c2)c1CNC[C@@H](O)CC(=O)O [Example 1006, (S)-4-(2-((5-cyanopyridin-3-yl)methoxy)-4-(3-(2,3-dihydrobenzo[b][1,4]dioxin-6-yl)-2-methylbenzyloxy)-6-methylbenzylamino)-3-hydroxybutanoic acid] | 0.6 to 10 |
| Cc1cc(CN2CCCC[C@@H]2C(=O)O)c(OCc2cncc(C#N)c2)cc1OCc1cccc(-c2ccc3c(c2)OCCO3)c1Cl [Example 1155, (R)-1-(4-(2-chloro-3-(2,3-dihydrobenzo[b][1,4]dioxin-6-yl)benzyloxy)-2-((5-cyanopyridin-3-yl)methoxy)-5-methylbenzyl)piperidine-2-carboxylic acid] | 0.6 to 10 |

The remaining lines, values ahead:

| IC50 [nM] | Structure (SMILES) |
| --- | --- |
| 0.6 to 10 | Cc1c(COc2ccc(CNC(CO)C(=O)O)c(OCc3cccc(C#N)c3)c2)cccc1-c1ccccc1 (centres unmarked) [Example 1017, 2-((2-((3-cyanobenzyl)oxy)-4-((2-methyl-[1,1′-biphenyl]-3-yl)methoxy)benzyl)amino)-3-hydroxypropanoic acid] |
| 100 to 20000 | CC(=O)NCCNCc1ccc(OCc2cccc(-c3ccccc3)c2C)cc1OCc1cc(F)cc(F)c1 [Example 1062, N-(2-((2-((3,5-difluorobenzyl)oxy)-4-((2-methyl-[1,1′-biphenyl]-3-yl)methoxy)benzyl)amino)ethyl)acetamide] |
| 100 to 20000 | CC(=O)NCCNCc1ccc(OCc2cccc(-c3ccccc3)c2C)cc1OCc1cccc(C)c1F [Example 1070, N-(2-((2-((2-fluoro-3-methylbenzyl)oxy)-4-((2-methyl-[1,1′-biphenyl]-3-yl)methoxy)benzyl)amino)ethyl)acetamide] |
| 0.6 to 10 | Cc1c(COc2ccc(CN3CCCC[C@H]3C(=O)O)c(OCc3cncc(C#N)c3)c2)cccc1-c1ccccc1 [Example 1329, (S)-1-(2-((5-cyanopyridin-3-yl)methoxy)-4-((2-methyl-[1,1′-biphenyl]-3-yl)methoxy)benzyl)piperidine-2-carboxylic acid] |
| 100 to 20000 | CC(=O)NCCNCc1ccc(OCc2cccc(-c3ccccc3)c2C)cc1OCc1cccc(-n2cccc2)c1 [Example 1112, N-(2-((2-((3-(1H-pyrrol-1-yl)benzyl)oxy)-4-((2-methyl-[1,1′-biphenyl]-3-yl)methoxy)benzyl)amino)ethyl)acetamide] |
| 0.6 to 10 | CC(=O)NCCNCc1cc(C)c(OCc2cccc(-c3ccc4c(c3)OCCO4)c2C)cc1OCc1cccc(C#N)c1 [Example 1264, N-(2-((2-((3-cyanobenzyl)oxy)-4-((3-(2,3-dihydrobenzo[b][1,4]dioxin-6-yl)-2-methylbenzyl)oxy)-5-methylbenzyl)amino)ethyl)acetamide] |
